Measured values: the NIST ThermoML archive (doi:10.1021/je5010214)
Numbers after ± are expanded uncertainties.

Conditions: Liquid, Vibrating tube method

CCCCCCC [heptane]
Conditions | mass density [kg/m3]
343.15 K, 47908 kPa | 688 ± 1
343.15 K, 50059 kPa | 689.668 ± 1.1
343.15 K, 52026 kPa | 691.103 ± 1.1
343.15 K, 59944 kPa | 696.69 ± 1.1
343.15 K, 61966 kPa | 697.921 ± 1.1
343.15 K, 65070 kPa | 699.939 ± 1.1
343.15 K, 66059 kPa | 700.533 ± 1.2
343.16 K, 34034 kPa | 676.976 ± 0.96
343.16 K, 54918 kPa | 693.158 ± 1.1
343.16 K, 57986 kPa | 695.23 ± 1.1
348.15 K, 100.3 kPa | 636.109 ± 0.82
348.15 K, 462.2 kPa | 636.505 ± 0.82
348.15 K, 859.8 kPa | 637.192 ± 0.82
348.15 K, 974.2 kPa | 637.393 ± 0.82
348.15 K, 1974.9 kPa | 638.781 ± 0.82
348.15 K, 3051.1 kPa | 640.295 ± 0.82
348.15 K, 5094 kPa | 643.002 ± 0.83
348.15 K, 10025 kPa | 649.256 ± 0.85
348.15 K, 14792 kPa | 654.622 ± 0.87
348.15 K, 20111 kPa | 660.386 ± 0.89
348.15 K, 22163 kPa | 662.539 ± 0.9
348.15 K, 28080 kPa | 668.108 ± 0.93
348.15 K, 30149 kPa | 670.002 ± 0.94
348.15 K, 32161 kPa | 671.799 ± 0.95
348.15 K, 32935 kPa | 672.452 ± 0.96
348.15 K, 33959 kPa | 673.504 ± 0.96
348.15 K, 35045 kPa | 674.428 ± 0.97
348.15 K, 37937 kPa | 676.834 ± 0.99
348.15 K, 40026 kPa | 678.502 ± 1
348.15 K, 45051 kPa | 682.511 ± 1
348.15 K, 47915 kPa | 684.825 ± 1
348.15 K, 49950 kPa | 686.336 ± 1.1
348.15 K, 52167 kPa | 688.088 ± 1.1
348.15 K, 55022 kPa | 690.168 ± 1.1
348.15 K, 57945 kPa | 692.261 ± 1.1
348.15 K, 62063 kPa | 695.106 ± 1.1
348.15 K, 64942 kPa | 696.91 ± 1.2
348.15 K, 66153 kPa | 697.788 ± 1.2
348.16 K, 291.7 kPa | 636.475 ± 0.82
348.16 K, 7050.2 kPa | 645.632 ± 0.84
348.16 K, 9003.2 kPa | 648.038 ± 0.84
348.16 K, 12187 kPa | 651.83 ± 0.86
348.16 K, 17899 kPa | 658.098 ± 0.88
348.16 K, 25100 kPa | 665.329 ± 0.92
348.16 K, 32942 kPa | 672.463 ± 0.96
348.16 K, 42066 kPa | 680.23 ± 1
348.16 K, 60030 kPa | 693.748 ± 1.1
353.15 K, 100.5 kPa | 631.649 ± 0.82
353.15 K, 336 kPa | 631.995 ± 0.82
353.15 K, 572.6 kPa | 632.233 ± 0.82
353.15 K, 926 kPa | 632.774 ± 0.82
353.15 K, 1016.4 kPa | 632.95 ± 0.82
353.15 K, 2992.1 kPa | 635.919 ± 0.82
353.15 K, 4963.9 kPa | 638.644 ± 0.83
353.15 K, 7000.9 kPa | 641.284 ± 0.84
353.15 K, 9062.3 kPa | 643.911 ± 0.84
353.15 K, 10005 kPa | 645.176 ± 0.85
353.15 K, 12128 kPa | 647.788 ± 0.86
353.15 K, 14954 kPa | 651.028 ± 0.87
353.15 K, 17977 kPa | 654.406 ± 0.88
353.15 K, 19937 kPa | 656.492 ± 0.89
353.15 K, 21894 kPa | 658.507 ± 0.9
353.15 K, 24908 kPa | 661.562 ± 0.92
353.15 K, 27850 kPa | 664.482 ± 0.93
353.15 K, 29936 kPa | 666.345 ± 0.94
353.15 K, 31876 kPa | 668.022 ± 0.95
353.15 K, 32911 kPa | 668.934 ± 0.96
353.15 K, 32961 kPa | 669.075 ± 0.96
353.15 K, 34945 kPa | 670.985 ± 0.97
353.15 K, 37913 kPa | 673.509 ± 0.99
353.15 K, 40143 kPa | 675.336 ± 1
353.15 K, 42067 kPa | 677.003 ± 1
353.15 K, 45002 kPa | 679.292 ± 1
353.15 K, 48029 kPa | 681.775 ± 1.1
353.15 K, 50145 kPa | 683.478 ± 1.1
353.15 K, 52082 kPa | 685.052 ± 1.1
353.15 K, 55132 kPa | 687.213 ± 1.1
353.15 K, 57980 kPa | 689.013 ± 1.1
353.15 K, 60098 kPa | 690.731 ± 1.1
353.15 K, 65063 kPa | 694.154 ± 1.2
353.16 K, 2113.4 kPa | 634.631 ± 0.82
353.16 K, 33964 kPa | 670.126 ± 0.97
353.16 K, 62042 kPa | 692.223 ± 1.1
353.16 K, 66024 kPa | 694.802 ± 1.2
358.15 K, 100.4 kPa | 626.935 ± 0.82
358.15 K, 264.1 kPa | 627.168 ± 0.82
358.15 K, 508.4 kPa | 627.316 ± 0.82
358.15 K, 926.8 kPa | 628.098 ± 0.82
358.15 K, 1013.9 kPa | 628.327 ± 0.82
358.15 K, 3021.2 kPa | 631.365 ± 0.82
358.15 K, 4930 kPa | 634.077 ± 0.83
358.15 K, 10073 kPa | 641.066 ± 0.85
358.15 K, 12137 kPa | 643.735 ± 0.86
358.15 K, 14905 kPa | 646.944 ± 0.87
358.15 K, 17965 kPa | 650.491 ± 0.88
358.15 K, 22175 kPa | 654.965 ± 0.91
358.15 K, 25059 kPa | 657.993 ± 0.92
358.15 K, 28035 kPa | 660.974 ± 0.94
358.15 K, 30002 kPa | 662.532 ± 0.95
358.15 K, 31978 kPa | 664.488 ± 0.96
358.15 K, 32793 kPa | 665.093 ± 0.96
358.15 K, 33039 kPa | 665.404 ± 0.96
358.15 K, 33850 kPa | 666.525 ± 0.97
358.15 K, 35026 kPa | 667.567 ± 0.98
358.15 K, 37872 kPa | 669.996 ± 0.99
358.15 K, 40037 kPa | 671.748 ± 1
358.15 K, 42100 kPa | 673.454 ± 1
358.15 K, 47958 kPa | 678.424 ± 1.1
358.15 K, 50038 kPa | 680.129 ± 1.1
358.15 K, 52081 kPa | 681.85 ± 1.1
358.15 K, 55073 kPa | 684.059 ± 1.1
358.15 K, 57918 kPa | 685.685 ± 1.1
358.15 K, 60043 kPa | 687.68 ± 1.1
358.15 K, 62066 kPa | 689.111 ± 1.1
358.15 K, 64986 kPa | 691.283 ± 1.2
358.15 K, 66109 kPa | 692.023 ± 1.2
358.16 K, 2083.9 kPa | 629.903 ± 0.82
358.16 K, 6993.5 kPa | 637.086 ± 0.84
358.16 K, 9030.2 kPa | 639.755 ± 0.84
358.16 K, 20162 kPa | 652.87 ± 0.89
358.16 K, 45054 kPa | 675.954 ± 1
363.15 K, 104.1 kPa | 622.138 ± 0.82
363.15 K, 334 kPa | 622.474 ± 0.82
363.15 K, 601.7 kPa | 622.649 ± 0.82
363.15 K, 892.9 kPa | 623.267 ± 0.82
363.15 K, 1034.7 kPa | 623.668 ± 0.82
363.15 K, 1986 kPa | 625.081 ± 0.82
363.15 K, 2940.4 kPa | 626.678 ± 0.82
363.15 K, 4979.2 kPa | 629.757 ± 0.83
363.15 K, 9959.5 kPa | 636.563 ± 0.85
363.15 K, 11971 kPa | 639.421 ± 0.86
363.15 K, 14936 kPa | 642.887 ± 0.87
363.15 K, 17973 kPa | 646.544 ± 0.89
363.15 K, 19940 kPa | 648.708 ± 0.9
363.15 K, 24872 kPa | 654.024 ± 0.92
363.15 K, 27993 kPa | 657.078 ± 0.94
363.15 K, 30062 kPa | 659.006 ± 0.95
363.15 K, 31961 kPa | 660.63 ± 0.96
363.15 K, 33033 kPa | 661.606 ± 0.97
363.15 K, 33053 kPa | 661.633 ± 0.97
363.15 K, 34000 kPa | 663.017 ± 0.97
363.15 K, 35028 kPa | 664.03 ± 0.98
363.15 K, 37919 kPa | 666.495 ± 1
363.15 K, 39916 kPa | 668.059 ± 1
363.15 K, 42016 kPa | 669.917 ± 1
363.15 K, 47947 kPa | 675.063 ± 1.1
363.15 K, 50050 kPa | 676.807 ± 1.1
363.15 K, 52023 kPa | 678.457 ± 1.1
363.15 K, 54940 kPa | 680.815 ± 1.1
363.15 K, 57916 kPa | 682.78 ± 1.1
363.15 K, 59980 kPa | 684.625 ± 1.1
363.15 K, 62043 kPa | 686.168 ± 1.2
363.15 K, 64924 kPa | 688.267 ± 1.2
363.15 K, 66088 kPa | 689.169 ± 1.2
363.16 K, 6920.2 kPa | 632.642 ± 0.84
363.16 K, 8964.8 kPa | 635.395 ± 0.85
363.16 K, 21933 kPa | 650.806 ± 0.91
363.16 K, 44987 kPa | 672.551 ± 1
